# In patent publication US20240238300A1, “TREATMENT METHODS FOR SUBJECTS WITH CANCER HAVING AN ABERRATION IN EGFR AND/OR HER2” (TAIHO PHARMACEUTICAL CO., LTD., priority 2021, published 2024):
# Experiments:
# SK-BR-3 cells = assay: feedback activation of HER3, downstream targets and apoptosis markers in SK-BR-3 cells; format: cell-based, human; settings: 48 hours
# Source text: The effect of Compound (1) on feedback activation of HER3, its downstream targets (ERK and AKT), and apoptosis markers (BIM and cleaved PARP) in SK-BR-3 cells was investigated. In addition, the same information for lapatinib and tucatinib (a reversible inhibitor of HER2) was obtained.
# [1] = tested on: NCI-N87 xenografts relapsed from T-mab and P-mab; assay: refractory T-mab/P-mab model Step II; format: in vivo; settings: for RTV (mean ± SE): Day 15 to Day 1 (Step II); for BWC (mean ± SE): Day 15 vs Day 1 (Step II); for T/C: Step II Day 15, vs T-mab + P-mab group; for Number of Death / TV (mean ± SE): Step II Day 15
# Description: Male nude mice (BALB/cAJcl-mu/mu) were implanted with NCI-N87 human gastric carcinoma (HER2 overexpressing); 1.0×10^7 cells in 100 μL of PBS were implanted subcutaneously per mouse.
# The tumor volumes (TV, mm^3) and body weights of the mice were recorded.
smiles,measurement,setting,value
"C=CC(=O)N1C[C@H](n2c(C#CC3CC3)c(C(=O)N[C@H](C)c3ccccc3)c3c(N)ncnc32)C[C@@H]1C [Compound (1), 7-((3R,5S)-1-acryloyl-5-methylpyrrolidin-3-yl)-4-amino-6-(cyclopropylethynyl)-N—((R)-1-phenylethyl)-7H-pyrrolo[2,3-d]pyrimidine-5-carboxamide]",BIM and cleaved PARP,SK-BR-3 cells; 10 to 100 nmol/L,markedly increased
same,"phosphorylation of HER2, HER3, AKT, and ERK",SK-BR-3 cells; concentrations starting as low as 10 nmol/L,sustained inhibition
same,body weight loss (tolerance),[1]; 12.5 and 25 mg/kg/day,did not cause severe body weight loss
same,RTV (mean ± SE),[1]; 12.5 mg/kg/day po Days 1-14,1.2
same,RTV (mean ± SE),[1]; 25 mg/kg/day po Days 1-14,1.0
same,BWC (mean ± SE),[1]; 12.5 mg/kg/day po Days 1-14,−1.2%
same,BWC (mean ± SE),[1]; 25 mg/kg/day po Days 1-14,−4.4%
same,T/C,[1]; 12.5 mg/kg/day po Days 1-14,52.5%
same,T/C,[1]; 25 mg/kg/day po Days 1-14,46.1%
same,Number of Death,[1]; 12.5 mg/kg/day po Days 1-14,0
same,TV (mean ± SE),[1]; 12.5 mg/kg/day po Days 1-14,412.5 mm^3
same,Number of Death,[1]; 25 mg/kg/day po Days 1-14,0
same,TV (mean ± SE),[1]; 25 mg/kg/day po Days 1-14,362.4 mm^3
